Measurements: patent US20190183948A1, “USE OF BCL-XL INHIBITOR AND ONCOLYTIC VIRUS IN PREPARATION OF ANTITUMOR DRUG” (GUANGZHOU VIROTECH PHARMACEUTICAL CO., LTD., priority 2016, published 2019)

Experiments:
Mcl-1 = Mcl-1 (Homo sapiens, UniProt Q07820); details: cited from earlier work
Bfl-1 = target: T1, Bfl-1 (Homo sapiens, UniProt Q16548); details: cited from earlier work
T1 sequence (Q16548 1-175): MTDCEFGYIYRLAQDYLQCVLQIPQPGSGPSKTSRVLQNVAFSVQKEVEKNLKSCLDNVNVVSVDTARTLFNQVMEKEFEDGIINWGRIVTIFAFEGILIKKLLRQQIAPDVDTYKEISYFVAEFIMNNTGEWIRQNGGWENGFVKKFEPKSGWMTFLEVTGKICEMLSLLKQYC

Bcl-B = target: T2, Bcl-B (Homo sapiens, UniProt Q9HD36); details: cited from earlier work
T2 sequence (Q9HD36 1-204): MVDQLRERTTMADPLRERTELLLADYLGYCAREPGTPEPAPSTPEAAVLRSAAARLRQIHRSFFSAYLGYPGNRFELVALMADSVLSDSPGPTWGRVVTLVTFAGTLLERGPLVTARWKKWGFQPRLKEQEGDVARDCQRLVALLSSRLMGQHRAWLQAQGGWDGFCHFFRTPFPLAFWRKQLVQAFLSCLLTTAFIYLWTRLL

[1] = system: LoVo transplantable tumor; experiment: Transplantable tumor growth in nude mice, LoVo (Example 4); assay type: in vivo, BALB/c nude mice; details: LoVo s.c. in nude mice; ABT-263 i.p. 10 mg/kg/d, M1 tail vein 2×10^6 PFU/time, three injections
Experimental: (§1) This experiment was designed in a randomized, single-blind way. 5×10^6 Hep3B or LoVo cells were subcutaneously injected into dorsa of the 4-week-aged BALB/c nude mice.
(§2) The weight, length and width of the tumor were measured every two days, and the volume of the tumor was calculated according to the formula: (length×width 2)/2. After the volume of the tumor was measured, One-way ANOVA statistics was carried out, wherein *** represented p<0.001 and **represented p<0.01.

[2] = system: Hep3B transplantable tumor; experiment: Transplantable tumor growth in nude mice, Hep3B (Example 4); assay type: in vivo, BALB/c nude mice; details: Hep3B s.c. in nude mice; ABT-263 i.p. 10 mg/kg/d, M1 tail vein 2×10^6 PFU/time, three injections
Experimental: as §1, §2

Bcl-w = target: T3, Bcl-w (Homo sapiens, UniProt Q92843); details: cited from earlier work
T3 sequence (Q92843 1-193): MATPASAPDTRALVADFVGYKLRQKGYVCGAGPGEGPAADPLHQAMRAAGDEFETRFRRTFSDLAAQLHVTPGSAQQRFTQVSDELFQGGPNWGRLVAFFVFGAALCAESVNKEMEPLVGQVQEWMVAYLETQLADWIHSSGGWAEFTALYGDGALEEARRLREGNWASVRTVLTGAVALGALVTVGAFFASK

A1 = target: T4, A1 (Homo sapiens, UniProt Q16548); details: cited from earlier work
T4 sequence (Q16548 1-175): T1 sequence (Q16548 1-175)

[3] = system: human liver cancer cell Hep3B; experiment: MTT survival rate (Example 2), Hep3B; assay type: cell-based; details: 48 hours, inhibitor 100 nM, M1 MOI=0.001
Experimental: a) Inoculation of cells and administration treatment: The cells in the exponential growth phase were selected and added into a DMEM complete culture medium (containing 10% fetal bovine serum and 1% penicillin/streptomycin (Life Technologies)) to prepare a cell suspension. The cells were inoculated into a 96-well culture plate at a density of 4×10^3/well. After 12 hours, the cells were completely adherent to the wall. […] The dose was used as follows: M1 virus that infected the cells; different dose gradient set for M1 virus. b) Reaction of MTT (3-(4,5-dimethylthiazol-2-yl)-2,5-diphenyltetrazolium bromide or methyl thiazolyl tetrazolium) with succinate dehydrogenase in the cells: 48 hours after culture, 20 μl of MIT (5 mg/ml) was added into each well, and was incubated for further 4 hours. After incubation, granular blue and purple formazan crystals formed in the living cells were observed by microscopic examination. c) Dissolution of formazan particles formed in the cells was accomplished as follows: the supernatant was carefully sucked off, and 100 μl/well of DMSO was added to dissolve the formed crystals, and was shaken in a microoscillator for 5 minutes. Then, the optical density (OD value) of each well was detected in an enzyme linked detector at a wavelength of 570 nm. The experiments were repeated for 3 times for each group. […]

Chain of Mcl-1 (Q07820 whole entry, species assumed): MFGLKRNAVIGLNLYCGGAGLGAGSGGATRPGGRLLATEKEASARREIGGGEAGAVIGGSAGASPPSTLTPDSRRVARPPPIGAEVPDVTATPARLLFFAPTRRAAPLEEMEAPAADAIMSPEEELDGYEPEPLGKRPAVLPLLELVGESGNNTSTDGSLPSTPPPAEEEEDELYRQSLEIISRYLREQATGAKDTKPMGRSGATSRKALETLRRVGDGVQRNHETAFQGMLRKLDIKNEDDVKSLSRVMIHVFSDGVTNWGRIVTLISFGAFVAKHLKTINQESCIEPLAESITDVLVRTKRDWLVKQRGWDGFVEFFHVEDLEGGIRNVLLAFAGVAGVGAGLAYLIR

Structure (SMILES) | binding / inhibitory effect on Mcl-1 (Mcl-1) | inhibitory effect on Bfl-1 (Bfl-1) | inhibitory effect on Bcl-B (Bcl-B) | tumor volume vs control group [1] | tumor volume vs control group [2] | Ki (Bcl-w) | binding to A1 (A1) | survival rate of the tumor cells [3]
CC1(C)CCC(CN2CCN(c3ccc(C(=O)NS(=O)(=O)c4ccc(NCC5CCOCC5)c([N+](=O)[O-])c4)c(Oc4cnc5[nH]ccc5c4)c3)CC2)=C(c2ccc(Cl)cc2)C1 [ABT-199] | no activity | – | – | – | – | – | – | –
CN(C)CC[C@H](CSc1ccccc1)Nc1ccc(S(=O)(=O)NC(=O)c2ccc(N3CCN(Cc4ccccc4-c4ccc(Cl)cc4)CC3)cc2)cc1[N+](=O)[O-] [ABT-737] | no inhibitory effect | no inhibitory effect | no inhibitory effect | – | – | – | – | –
CC1(C)CCC(c2ccc(Cl)cc2)=C(CN2CCN(c3ccc(C(=O)NS(=O)(=O)c4ccc(N[C@H](CCN5CCOCC5)CSc5ccccc5)c(S(=O)(=O)C(F)(F)F)c4)cc3)CC2)C1 [ABT-263] | binds weakly | – | – | slight shrinkage of the tumor volume | slight shrinkage of the tumor volume | ≤ 1 nM | binds weakly | 88.8%
